Target: T1, human PTH1 receptor (Homo sapiens, UniProt Q03431)
T1 sequence (Q03431 27-593): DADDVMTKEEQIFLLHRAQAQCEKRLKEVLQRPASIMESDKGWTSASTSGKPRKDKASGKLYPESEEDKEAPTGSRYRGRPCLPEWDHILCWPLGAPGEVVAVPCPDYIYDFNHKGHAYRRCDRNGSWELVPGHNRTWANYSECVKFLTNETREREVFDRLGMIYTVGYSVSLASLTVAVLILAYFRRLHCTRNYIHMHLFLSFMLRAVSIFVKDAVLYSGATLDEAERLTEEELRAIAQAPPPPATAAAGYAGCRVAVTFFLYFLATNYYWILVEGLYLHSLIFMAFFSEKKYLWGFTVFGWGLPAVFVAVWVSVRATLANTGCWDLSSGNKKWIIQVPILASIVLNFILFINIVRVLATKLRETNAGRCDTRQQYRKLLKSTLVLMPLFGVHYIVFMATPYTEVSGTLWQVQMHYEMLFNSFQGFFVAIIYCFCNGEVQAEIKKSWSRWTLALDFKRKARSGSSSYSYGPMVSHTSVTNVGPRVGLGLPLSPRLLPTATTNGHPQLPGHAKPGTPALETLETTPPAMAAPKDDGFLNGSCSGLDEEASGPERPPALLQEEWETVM
Assay: In vitro cAMP signal activity in HKRK-B7 cells (LLC-PK1 cells overexpressing the human PTH1 receptor)
Assay type: cell-based
Details: HKRK-B7 cells; compound at 1×10^−3 M; cAMP produced as percentage of that produced by hPTH(1-34) at 100 nM

Compared with `CCC1CCC(C2=NC3(CCN(S(=O)(=O)CCc4ccc(C(=O)N(C)C)cc4C)CC3)C(=O)N2)CC1` (stereo not shown) [Compound 896, 4-{2-[2-(4-ethyl-cyclohexyl)-4-oxo-1,3,8-triaza-spiro[4.5]dec-1-ene-8-sulfonyl]-ethyl}-3,N,N-trimethyl-benzamide], `COCCC1CCC(C2=NC3(CCN(S(=O)(=O)CCc4ccc(C(=O)N(C)C)cc4C)CC3)C(=O)N2)CC1` (stereo not shown) [Compound 902, 4-(2-{2-[4-(2-Methoxy-ethyl)-cyclohexyl]-4-oxo-1,3,8-triaza-spiro[4.5]dec-1-ene-8-sulfonyl}-ethyl)-3,N,N-trimethyl-benzamide] is lower in “cAMP production activity (%)” value: 83% for the first, 67% for the second.

Compared with `Cc1cc(C(=O)N(C)C)ccc1CCS(=O)(=O)N1CCC2(CC1)N=C(C1CCC(CCCC(F)(F)F)CC1)NC2=O` (stereo not shown) [Compound 897, 3,N,N-trimethyl-4-(2-{4-oxo-2-[4-(4,4,4-trifluoro-butyl)-cyclohexyl]-1,3,8-triaza-spiro[4.5]dec-1-ene-8-sulfonyl}-ethyl)-benzamide], `CC(=O)Nc1ccc(CCS(=O)(=O)N2CCC3(CC2)N=C(C2CCC(COCC(F)(F)F)CC2)NC3=O)c(C)c1` (stereo not shown) [Compound 919, N-[3-methyl-4-(2-{4-oxo-2-[4-(2,2,2-trifluoro-ethoxymethyl)-cyclohexyl]-1,3,8-triaza-spiro[4.5]dec-1-ene-8-sulfonyl}-ethyl)-phenyl]-acetamide] is lower in “cAMP production activity (%)” value: 85% for the first, 68% for the second.

Compared with `Cc1cc(C(=O)N(C)C)ccc1CCS(=O)(=O)N1CCC2(CC1)N=C(c1cccc(OC(F)(F)F)c1)N=C2NCC1CCCCC1` [Compound 898, 4-{2-[4-(cyclohexylmethyl-amino)-2-(3-trifluoromethoxy-phenyl)-1,3,8-triaza-spiro[4.5]deca-1,3-diene-8-sulfonyl]-ethyl}-3,N,N-trimethyl-benzamide], `Cc1cc(C(=O)N(C)C)ccc1CCS(=O)(=O)N1CCC2(CC1)N=C(c1cccc(OC(F)(F)F)c1)N=C2N(C)C` [Compound 899, 4-{2-[4-dimethylamino-2-(3-trifluoromethoxy-phenyl)-1,3,8-triaza-spiro[4.5]deca-1,3-diene-8-sulfonyl]-ethyl}-3,N,N-trimethyl-benzamide] is higher in “cAMP production activity (%)” value: 4.3% for the first, 12% for the second.

Compared with `Cc1cc(C(=O)N(C)C)ccc1CCS(=O)(=O)N1CCC2(CC1)N=C(c1cccc(OC(F)(F)F)c1)N/C2=N\O` [Compound 900, 4-{2-[4-[(Z)-hydroxyimino]-2-(3-trifluoromethoxy-phenyl)-1,3,8-triaza-spiro[4.5]dec-1-ene-8-sulfonyl]-ethyl}-3,N,N-trimethyl-benzamide], `CO/N=C1\NC(c2cccc(OC(F)(F)F)c2)=NC12CCN(S(=O)(=O)CCc1ccc(C(=O)N(C)C)cc1C)CC2` [Compound 901, 4-{2-[4-[(Z)-methoxyimino]-2-(3-trifluoromethoxy-phenyl)-1,3,8-triaza-spiro[4.5]dec-1-ene-8-sulfonyl]-ethyl}-3,N,N-trimethyl-benzamide] is lower in “cAMP production activity (%)” value: 90% for the first, 1.9% for the second.

Compared with `CC(=O)Nc1ccc(CCS(=O)(=O)N2CCC3(CC2)N=C(C2CCCC2)NC3=O)c(C)c1` [Compound 903, N-{4-[2-(2-Cyclopentyl-4-oxo-1,3,8-triaza-spiro[4.5]dec-1-ene-8-sulfonyl)-ethyl]-3-methyl-phenyl}-acetamide], `CC(=O)Nc1ccc(CCS(=O)(=O)N2CCC3(CC2)N=C(C2CCCCCC2)NC3=O)c(C)c1` [Compound 917, N-{4-[2-(2-Cycloheptyl-4-oxo-1,3,8-triaza-spiro[4.5]dec-1-ene-8-sulfonyl)-ethyl]-3-methyl-phenyl}-acetamide] is higher in “cAMP production activity (%)” value: 56% for the first, 69% for the second.

First: CC(=O)Nc1ccc(CCS(=O)(=O)N2CCC3(CC2)N=C(C2CCC(C(F)(F)F)CC2)NC3=O)c(C)c1 (stereo not shown) [Compound 904, N-(3-methyl-4-{2-[4-oxo-2-(4-trifluoromethyl-cyclohexyl)-1,3,8-triaza-spiro[4.5]dec-1-ene-8-sulfonyl]-ethyl}-phenyl)-acetamide]
Second: CC(=O)Nc1ccc(CCS(=O)(=O)N2CCC3(CC2)N=C(C2CCC(C(C)(C)C)CC2)NC3=O)c(C)c1 (stereo not shown) [Compound 909, N-(4-{2-[2-(4-tert-butyl-cyclohexyl)-4-oxo-1,3,8-triaza-spiro[4.5]dec-1-ene-8-sulfonyl]-ethyl}-3-methyl-phenyl)-acetamide]
The “cAMP production activity (%)” value of the first is lower: 69% for the first, 78% for the second.

Compared with `CCCCC1CCC(C2=NC3(CCN(S(=O)(=O)CCc4ccc(NC(C)=O)cc4C)CC3)C(=O)N2)CC1` (stereo not shown) [Compound 905, N-(4-{2-[2-(4-butyl-cyclohexyl)-4-oxo-1,3,8-triaza-spiro[4.5]dec-1-ene-8-sulfonyl]-ethyl}-3-methyl-phenyl)-acetamide], `CCOCC1CCC(C2=NC3(CCN(S(=O)(=O)CCc4ccc(NC(C)=O)cc4C)CC3)C(=O)N2)CC1` (stereo not shown) [Compound 910, N-(4-{2-[2-(4-ethoxymethyl-cyclohexyl)-4-oxo-1,3,8-triaza-spiro[4.5]dec-1-ene-8-sulfonyl]-ethyl}-3-methyl-phenyl)-acetamide] is lower in “cAMP production activity (%)” value: 75% for the first, 64% for the second.

Compared with `CC(=O)Nc1ccc(CCS(=O)(=O)N2CCC3(CC2)N=C(c2ccc(C#N)cc2)NC3=O)c(C)c1` [Compound 906, N-(4-{2-[2-(4-cyano-phenyl)-4-oxo-1,3,8-triaza-spiro[4.5]dec-1-ene-8-sulfonyl]-ethyl}-3-methyl-phenyl)-acetamide], `CC(=O)Nc1ccc(CCS(=O)(=O)N2CCC3(CC2)N=C(c2cccc(C#N)c2)NC3=O)c(C)c1` [Compound 907, N-(4-{2-[2-(3-cyano-phenyl)-4-oxo-1,3,8-triaza-spiro[4.5]dec-1-ene-8-sulfonyl]-ethyl}-3-methyl-phenyl)-acetamide] is higher in “cAMP production activity (%)” value: 78% for the first, 85% for the second.

First: CC(=O)Nc1ccc(CCS(=O)(=O)N2CCC3(CC2)N=C(c2ccccc2C#N)NC3=O)c(C)c1 [Compound 908, N-(4-{2-[2-(2-cyano-phenyl)-4-oxo-1,3,8-triaza-spiro[4.5]dec-1-ene-8-sulfonyl]-ethyl}-3-methyl-phenyl)-acetamide]
Second: CC(=O)Nc1ccc(CCS(=O)(=O)N2CCC3(CC2)N=C(C2CCC(c4ccc(Cl)cc4)CC2)NC3=O)c(C)c1 (stereo not shown) [Compound 920, N-[4-(2-{2-[4-(4-Chloro-phenyl)-cyclohexyl]-4-oxo-1,3,8-triaza-spiro[4.5]dec-1-ene-8-sulfonyl}-ethyl)-3-methyl-phenyl]-acetamide]
The “cAMP production activity (%)” value of the first is higher: 74% for the first, 70% for the second.

Compared with `CCCOC1CCC(C2=NC3(CCN(S(=O)(=O)CCc4ccc(NC(C)=O)cc4C)CC3)C(=O)N2)CC1` (stereo not shown) [Compound 911, N-(3-methyl-4-{2-[4-oxo-2-(4-propoxy-cyclohexyl)-1,3,8-triaza-spiro[4.5]dec-1-ene-8-sulfonyl]-ethyl}-phenyl)-acetamide], `CCCCOC1CCC(C2=NC3(CCN(S(=O)(=O)CCc4ccc(NC(C)=O)cc4C)CC3)C(=O)N2)CC1` (stereo not shown) [Compound 912, N-(4-{2-[2-(4-butoxy-cyclohexyl)-4-oxo-1,3,8-triaza-spiro[4.5]dec-1-ene-8-sulfonyl]-ethyl}-3-methyl-phenyl)-acetamide] is higher in “cAMP production activity (%)” value: 71% for the first, 98% for the second.

First: CC(=O)Nc1ccc(CCS(=O)(=O)N2CCC3(CC2)N=C(C2CCC(COC(C)C)CC2)NC3=O)c(C)c1 (stereo not shown) [Compound 913, N-(4-{2-[2-(4-isopropoxymethyl-cyclohexyl)-4-oxo-1,3,8-triaza-spiro[4.5]dec-1-ene-8-sulfonyl]-ethyl}-3-methyl-phenyl)-acetamide]
Second: CC(=O)Nc1ccc(CCS(=O)(=O)N2CCC3(CC2)N=C([C@H]2CC[C@@H](OCCCF)CC2)NC3=O)c(C)c1 [Compound 914, N-[4-(2-{2-[4-(3-fluoro-propoxy)-cyclohexyl]-4-oxo-1,3,8-triaza-spiro[4.5]dec-1-ene-8-sulfonyl}-ethyl)-3-methyl-phenyl]-acetamide]
The “cAMP production activity (%)” value of the first is higher: 81% for the first, 68% for the second.

Compared with `CC(=O)Nc1ccc(CCS(=O)(=O)N2CCC3(CC2)N=C([C@H]2CC[C@H](OCCCF)CC2)NC3=O)c(C)c1` [Compound 915, N-[4-(2-{2-[4-(3-fluoro-propoxy)-cyclohexyl]-4-oxo-1,3,8-triaza-spiro[4.5]dec-1-ene-8-sulfonyl}-ethyl)-3-methyl-phenyl]-acetamide], `CC(=O)Nc1ccc(CCS(=O)(=O)N2CCC3(CC2)N=C([C@H]2CC[C@H](/C=C/C(F)F)CC2)NC3=O)c(C)c1` [Compound 916, N-[4-(2-{2-[4-((E)-3,3-difluoro-propenyl)-cyclohexyl]-4-oxo-1,3,8-triaza-spiro[4.5]dec-1-ene-8-sulfonyl}-ethyl)-3-methyl-phenyl]-acetamide] is lower in “cAMP production activity (%)” value: 61% for the first, 59% for the second.

With `CC(=O)Nc1ccc(CCS(=O)(=O)N2CCC3(CC2)N=C(C24CC5CC(CC(C5)C2)C4)NC3=O)c(C)c1` [Compound 918, N-{4-[2-(2-adamantan-1-yl-4-oxo-1,3,8-triaza-spiro[4.5]dec-1-ene-8-sulfonyl)-ethyl]-3-methyl-phenyl}-acetamide] the “cAMP production activity (%)” value was 63%.

Source: patent US9169254B2, “Spiroimidazolone derivative” (Chugai Seiyaku Kabushiki Kaisha, priority 2009, dated 2015)
